Laboratory results from the RepoRT retention time repository.

Assay: A: acetonitrile + 0.1% formic acid + 10 mM ammonium formate; B: 5% water + 95% acetonitrile + 0.1% formic acid + 10 mM ammonium formate; gradient (min/%B) 0/10 2/10 22/100 27/100 27.1/10
Conditions: stereoisomer not certain

Row | Structure (SMILES) | LC retention time
1 | CCc1cccc2c3c([nH]c12)C(CC)(CC(=O)O)OCC3 (stereo unspecified) [Etodolac] | 0.453 min
2 | CC(CCC(=O)NCCS(=O)(=O)O)C1CCC2C3C(O)CC4CC(O)CCC4(C)C3CCC12C (stereo unspecified) [Tauroursodeoxycholic acid] | 2.7 min
3 | O=C1OC2(c3ccccc31)c1cc(I)c(O)c(I)c1Oc1c2cc(I)c(O)c1I [Erythrosine B] | 0.57 min
4 | O=c1ccn(C2OC(COP(=O)(O)OP(=O)(O)O)C(O)C2O)c(=O)[nH]1 (stereo unspecified) [Uridine 5'-diphosphate] | 8.14 min
5 | NCCOP(=O)(O)O [O-Phosphorylethanolamine] | 7.28 min
6 | COc1ccc2[nH]cc(CCN)c2c1 [5-Methoxytryptamine] | 2.21 min
7 | CCCC[C@H](N)C(=O)O [L-Norleucine] | 4.99 min
8 | CC12CCC(=O)C=C1CCC1C2C(O)CC2(C)C1CCC2(O)C(=O)CO (stereo unspecified) [Hydrocortisone] | 0.479 min
9 | CC(=O)C1CCC2C3CCC4=CC(=O)CCC4(C)C3CCC12C (stereo unspecified) [Progesterone] | 0.425 min
10 | NCCCCC(=O)O [5-Aminovaleric acid] | 5.83 min
11 | C=CC1CN2CCC1CC2C(O)c1ccnc2ccccc12 (stereo unspecified) [Cinchonidine] | 2.2 min
12 | CN(CC(=O)O)C(=N)N [Creatine] | 6.15 min
13 | COc1ccc2[nH]cc(CCNC(C)=O)c2c1 [Melatonin] | 0.468 min
14 | O=c1c(O)c(-c2ccc(O)c(O)c2)oc2cc(O)cc(O)c12 [Quercetin] | 0.592 min
15 | c1coc(Cn2cccc2)c1 [1-Furfurylpyrrole] | 0.425 min
16 | O=C(c1ccc(OCCN2CCCCC2)cc1)c1c(-c2ccc(O)cc2)sc2cc(O)ccc12 [Raloxifene] | 1.42 min
17 | O=C(O)c1ccc(=O)[nH]c1 [6-Hydroxynicotinic acid] | 5.17 min
18 | NS(=O)(=O)c1cc(C(=O)O)c(NCc2ccco2)cc1Cl [Furosemide] | 0.586 min
19 | NC(CCC(=O)NC(CS)C(=O)NCC(=O)O)C(=O)O [L-Glutathione reduced] | 7.03 min
20 | CCN(Cc1ccncc1)C(=O)C(CO)c1ccccc1 (stereo unspecified) [Tropicamide] | 0.641 min
21 | OCC(O)C(O)C(OC1OC(CO)C(O)C(O)C1O)C(O)CO (stereo unspecified) [Maltitol] | 6.59 min
22 | Nc1ccc(O)c(C(=O)O)c1 [5-Aminosalicylic acid] | 1.82 min
23 | OCCc1c[nH]c2ccccc12 [Indole-3-ethanol] | 1.31 min
24 | COC(=O)C1=CCCN(C)C1 [Arecoline] | 2.06 min
25 | COC(=O)Cc1ccc(C(C)(C)C)cc1 [Methyl p-tert-butylphenylacetate] | 0.415 min
26 | Cc1cc2nc3c(=O)[nH]c(=O)nc-3n(CC(O)C(O)C(O)COP(=O)(O)O)c2cc1C (stereo unspecified) [Riboflavin 5'-Monophosphate] | 6.38 min

Row | Structure (SMILES) | LC retention time
27 | CC(=O)N[C@@H](CCCN)C(=O)O [N-Acetyl-L-ornithine] | 6.58 min
28 | O=Cc1ccc(O)c(O)c1 [3,4-Dihydroxybenzaldehyde] | 0.571 min
29 | O=C(C=Cc1ccc(O)c(O)c1)OC1CC(O)(C(=O)O)CC(O)C1O (stereo unspecified) [Chlorogenic acid] | 4.76 min
30 | NC(=O)CCC(NC(=O)Cc1ccccc1)C(=O)O (stereo unspecified) [Phenyl-Ac-Gln-OH] | 3.83 min
31 | NC(=O)N1c2ccccc2C=Cc2ccccc21 [Carbamazepine] | 0.469 min
32 | Cc1ccccc1C(=O)NCC(=O)O [2-Methylhippuric acid] | 3.28 min
33 | CC(=O)NC(Cc1c[nH]c2ccccc12)C(=O)O (racemic) [N-Acetyl-DL-Tryptophan] | 1.32 min
34 | CCN(Cc1cccc(S(=O)(=O)O)c1)c1ccc(C(=C2C=CC(=[N+](CC)Cc3cccc(S(=O)(=O)O)c3)C=C2)c2ccccc2S(=O)(=O)[O-])cc1 [Erioglaucine] | 4.34 min
35 | Nc1ncnc2c1ncn2C1OC(COP(=O)(O)OP(=O)(O)O)C(O)C1O (stereo unspecified) [Adenosine 5'-diphosphate] | 9.46 min
36 | O=C(O)C=Cc1cnc[nH]1 [Urocanic acid] | 1.89 min
37 | O=C(O)CCCCCCC(=O)NCC(=O)O [Suberyl Glycine] | 5.46 min
38 | CC(=O)N[C@@H](Cc1ccc(O)cc1)C(=O)O [N-Acetyl-L-tyrosine] | 2.85 min
39 | Cc1ccnc2c1NC(=O)c1cccnc1N2C1CC1 [Nevirapine] | 0.596 min
40 | Nc1ccccc1C(=O)CC(N)C(=O)O [L-Kynurenine] | 4.67 min
41 | CCCCC(=O)N(Cc1ccc(-c2ccccc2-c2nn[nH]n2)cc1)C(C(=O)O)C(C)C (stereo unspecified) [Valsartan] | 0.733 min
42 | Cc1cnc(NC(=O)C2=C(O)c3ccccc3S(=O)(=O)N2C)s1 [Meloxicam] | 0.416 min
43 | O=C(O)CNC(=O)CCc1ccccc1 [N-(3-Phenylpropionyl)glycine] | 1.25 min
44 | Cn1c(=O)c2c(ncn2C)n(C)c1=O [Caffeine] | 0.477 min
45 | CC(N)c1ccccc1 (stereo not drawn) [alpha-Methylbenzylamine] | 2.3 min
46 | O=C(O)CNC(=O)c1ccccc1O [2-Hydroxy Hippuric Acid] | 1.14 min
47 | CC(C=CC1=C(C)CCCC1(C)C)=CC=CC(C)=CC(=O)O [Retinoic Acid] | 0.433 min
48 | O=C(O)C(=O)Cc1c[nH]c2ccccc12 [Indole-3-pyruvic acid] | 0.455 min
49 | COc1cc(/C=C/C(=O)O)ccc1O [Ferulic acid] | 0.564 min
50 | NCCCCN=C(N)N [Agmatine] | 6.99 min
51 | O=c1c(-c2ccc(O)cc2)coc2cc(O)ccc12 [Daidzein] | 0.473 min
52 | Cn1cncc1CC(NC(=O)CCN)C(=O)O [L-Anserine] | 7.92 min

Row | Structure (SMILES) | LC retention time
53 | CC(C=CC=C(C)C=CC1=C(C)CCCC1(C)C)=CC=O [All trans-Retinal] | 0.407 min
54 | O=C(O)Cc1cnc[nH]1 [Imidazole-4(5)-acetic Acid] | 6.1 min
55 | CC12CCC(=O)C=C1CCC1C2C(O)CC2(C)C(C(=O)CO)CCC12 (stereo unspecified) [Corticosterone] | 0.472 min
56 | CCCC(=O)Nc1ccc(OCC(O)CNC(C)C)c(C(C)=O)c1 (stereo unspecified) [Acebutolol] | 2.28 min
57 | CCCOC(=O)c1cc(O)c(O)c(O)c1 [Propyl gallate] | 0.478 min
58 | NC(=O)c1ccc[n+](C2OC(COP(=O)(O)OP(=O)([O-])OCC3OC(n4cnc5c(N)ncnc54)C(OP(=O)(O)O)C3O)C(O)C2O)c1 (stereo unspecified) [NADP] | 8.7 min
59 | COc1ccc(Cl)cc1C(=O)NCCc1ccc(S(=O)(=O)NC(=O)NC2CCCCC2)cc1 [Glibenclamide] | 0.446 min
60 | COC(=O)C1=C(C)NC(C)=C(C(=O)OCCN(C)Cc2ccccc2)C1c1cccc([N+](=O)[O-])c1 (stereo unspecified) [Nicardipine] | 0.714 min
61 | CC12C=CC(=O)C=C1CCC1C3CC(O)C(O)(C(=O)CO)C3(C)CC(O)C12F (stereo unspecified) [Triamcinolone] | 0.499 min
62 | COc1ccc(CCN(C)CCCC(C#N)(c2ccc(OC)c(OC)c2)C(C)C)cc1OC (racemic) [(+/-)-Verapamil] | 0.815 min
63 | CC1=CCC2CC1C2(C)C (single isomer, unassigned; (-)) [(-)-alpha-Pinene] | 0.438 min
64 | NC(=O)C1=CN(C2OC(COP(=O)(O)OP(=O)(O)OCC3OC(n4cnc5c(N)ncnc54)C(O)C3O)C(O)C2O)C=CC1 (stereo unspecified) [NADH] | 7.5 min
65 | O=C(C=Cc1ccccc1)OCc1ccccc1 [Benzyl cinnamate] | 0.413 min
66 | CC(=O)Oc1cc(C)c(OC(C)=O)c2ccccc12 [Vitamin K4] | 0.412 min
67 | CN1CC(=O)N2C(Cc3c([nH]c4ccccc34)C2c2ccc3c(c2)OCO3)C1=O (stereo unspecified) [Tadalafil] | 0.457 min
68 | CC1=C(CC(=O)O)c2cc(F)ccc2C1=Cc1ccc(S(C)=O)cc1 (stereo unspecified) [Sulindac] | 0.56 min
69 | COc1ccc2c(c1OC)=CN1CCc3cc4c(cc3C1C=2)OCO4 (stereo unspecified) [Berberine] | 0.872 min
70 | CN(C)C(=N)N=C(N)N [Metformin] | 3.67 min
71 | CC(=O)OCC(=O)C12OC3(CCCC3)OC1CC1C3CCC4=CC(=O)C=CC4(C)C3(F)C(O)CC12C (stereo unspecified) [Amcinonide] | 0.433 min
72 | NC(N)=NCCCC[C@H](N)C(=O)O [L-Homoarginine] | 7.39 min
73 | NC(CCCC(=O)O)C(=O)O (stereo unspecified) [Aminoadipic acid] | 6.5 min
74 | Nc1nc2c(ncn2C2CC(O)C(COP(=O)(O)O)O2)c(=O)[nH]1 (stereo unspecified) [2'-Deoxyguanosine 5'-monophosphate] | 7.1 min
75 | Cc1cc2nc3c(=O)[nH]c(=O)nc-3n(CC(O)C(O)C(O)COP(=O)(O)OP(=O)(O)OCC3OC(n4cnc5c(N)ncnc54)C(O)C3O)c2cc1C (stereo unspecified) [Flavin Adenine Dinucleotide] | 7.38 min
76 | O=c1ccc2cc(OC3OC(CO)C(O)C(O)C3O)c(O)cc2o1 (stereo unspecified) [Esculin] | 2.52 min
